Measured values from patent publication US11458138B2 (Novartis AG, priority 2017, dated 2022).

How the values were obtained:
[1] = system: YAP nuclear translocation in HaCaT cells; assay: YAP Translocation Assay (HaCaT Cells); assay type: cell-based, human; details: Homo sapiens, 24 hours
Method in brief: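 HaCaT cells (20,000/well) in DMEM + 10% FBS were plated overnight at 37° C, then exposed to compound for 24 h at 37° C. Cells were fixed with PFA, permeabilized with 0.1% Triton/1.5% BSA and imaged by high-content imaging.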

[2] = system: Phospho-YAP (SER127) in HaCaT cells; assay: pYAP HTRF Assay (HaCaT Cells); assay type: cell-based, human; details: Homo sapiens, 2 hours
Method in brief: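 Phospho-YAP (Ser127) was measured by HTRF (665 nm/620 nm ratio) in HaCaT cells. Cells were grown 48 hours at 37° C at 5500 cells/well, exposed to compound for 2 hours, and incubated with detection reagents for 20 hrs at room temperature.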

[3] = molecular target: LATS1 (Homo sapiens (Human), UniProt O95835); assay: LATS1 biochemical assay (Table 1A, Compound Examples 1-290; method in the earlier part)
Chain of LATS1 (O95835 whole entry, looked up): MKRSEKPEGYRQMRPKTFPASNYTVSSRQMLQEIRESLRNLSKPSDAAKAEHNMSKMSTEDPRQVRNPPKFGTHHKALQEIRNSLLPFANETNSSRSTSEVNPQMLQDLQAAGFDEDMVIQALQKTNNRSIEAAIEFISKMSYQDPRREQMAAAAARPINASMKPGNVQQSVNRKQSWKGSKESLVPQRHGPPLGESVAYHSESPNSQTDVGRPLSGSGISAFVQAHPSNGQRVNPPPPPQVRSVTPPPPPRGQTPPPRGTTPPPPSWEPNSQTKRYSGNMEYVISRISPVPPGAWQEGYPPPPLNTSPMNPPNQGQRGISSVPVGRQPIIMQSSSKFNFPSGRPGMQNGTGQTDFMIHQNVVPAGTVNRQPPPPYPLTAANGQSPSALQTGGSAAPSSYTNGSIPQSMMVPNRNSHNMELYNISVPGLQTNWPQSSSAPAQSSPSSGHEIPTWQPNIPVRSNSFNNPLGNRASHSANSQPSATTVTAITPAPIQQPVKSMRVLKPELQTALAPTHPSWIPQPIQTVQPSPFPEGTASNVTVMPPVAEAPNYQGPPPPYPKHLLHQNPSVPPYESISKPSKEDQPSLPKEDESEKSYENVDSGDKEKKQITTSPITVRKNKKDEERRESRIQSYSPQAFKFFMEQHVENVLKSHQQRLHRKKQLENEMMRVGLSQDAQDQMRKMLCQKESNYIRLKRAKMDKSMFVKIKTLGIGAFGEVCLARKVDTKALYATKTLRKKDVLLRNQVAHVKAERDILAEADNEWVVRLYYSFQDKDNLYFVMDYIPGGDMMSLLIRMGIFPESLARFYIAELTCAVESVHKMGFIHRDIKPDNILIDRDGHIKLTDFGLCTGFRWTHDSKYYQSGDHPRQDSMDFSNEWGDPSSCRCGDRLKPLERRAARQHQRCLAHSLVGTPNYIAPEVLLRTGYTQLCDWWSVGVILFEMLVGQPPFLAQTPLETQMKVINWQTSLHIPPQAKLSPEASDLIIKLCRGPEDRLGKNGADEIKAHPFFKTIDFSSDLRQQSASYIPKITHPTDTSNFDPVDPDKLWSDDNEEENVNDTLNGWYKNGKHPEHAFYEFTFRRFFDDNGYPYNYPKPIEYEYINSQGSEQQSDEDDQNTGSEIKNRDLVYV
Chain of LATS1 (Q7L9L4 whole entry partner, looked up): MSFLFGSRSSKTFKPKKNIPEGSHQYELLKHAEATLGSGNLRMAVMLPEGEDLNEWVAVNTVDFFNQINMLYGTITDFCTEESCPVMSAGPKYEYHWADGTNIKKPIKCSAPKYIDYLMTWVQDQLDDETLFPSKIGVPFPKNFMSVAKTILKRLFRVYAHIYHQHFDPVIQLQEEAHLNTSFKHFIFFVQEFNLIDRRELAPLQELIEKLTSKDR

| Compound | IC50 [3] [µM] | EC50 [1] [µM] | IC50 [2] [µM] |
| --- | --- | --- | --- |
| CC(C)(CNC(=O)OC(C)(C)C)Nc1nc(-c2ccncc2)nc2cnccc12 [Example 100, Tert-butyl N-(2-methyl-2-{[2-(pyridin-4-yl)pyrido[3,4-d]pyrimidin-4-yl]amino}propyl)carbamate] | 0.004 | 4.83 | 11.6 |
| NCCCCCCNc1nc(-c2ccncc2)nc2cnccc12 [Example 105, N-(6-aminohexyl)-2-(pyridin-4-yl)pyrido[3,4-d]pyrimidin-4-amine] | 0.001 | > 20 | 19.9 |
| NCCCCNc1nc(-c2ccncc2)nc2cnccc12 [Example 106, N-(4-aminobutyl)-2-(pyridin-4-yl)pyrido[3,4-d]pyrimidin-4-amine] | 0.003 | > 20 | 14.2 |
| CC1CCCCN1CC(C)(C)Nc1nc(-c2ccncc2)nc2cnccc12 (stereo not drawn) [Example 108, N-[2-methyl-1-(2-methylpiperidin-1-yl)propan-2-yl]-2-(pyridin-4-yl)pyrido[3,4-d]pyrimidin-4-amine] | 0.027 | > 19.3 | 11.8 |
| CCN(c1nc(-c2ccncc2F)nc2cnccc12)C(C)C [Example 120, N-ethyl-2-(3-fluoropyridin-4-yl)-N-(propan-2-yl)pyrido[3,4-d]pyrimidin-4-amine] | 0.01 | 2.93 | 2.14 |
| Cc1n[nH]cc1-c1nc(NC(C)(C)C(F)(F)F)c2ccncc2n1 [Example 135, 2-(3-methyl-1H-pyrazol-4-yl)-N-(1,1,1-trifluoro-2-methylpropan-2-yl)pyrido[3,4-d]pyrimidin-4-amine] | 0.002 | 0.85 | 0.488 |
| C[C@@H](N(C)c1nc(-c2ccncc2F)nc2cnccc12)C(F)(F)F [Example 137, 2-(3-fluoropyridin-4-yl)-N-methyl-N-[(2R)-1,1,1-trifluoropropan-2-yl]pyrido[3,4-d]pyrimidin-4-amine] | 0.022 | > 17.8 | 35.5 |
| CC1(Nc2nc(-c3ccnc(N)c3)nc3cnccc23)CC1 [Example 138, 4-{4-[(1-methylcyclopropyl)amino]pyrido[3,4-d]pyrimidin-2-yl}pyridin-2-amine] | 0.002 | 9.07 | 3.37 |
| CCCNc1nc(-c2c(C)[nH]c3ncccc23)nc2cnccc12 [Example 142, 2-{2-methyl-1H-pyrrolo[2,3-b]pyridin-3-yl}-N-propylpyrido[3,4-d]pyrimidin-4-amine] | 0.006 | > 28 | > 100 |
| CC(C)(Nc1nc(-c2c[nH]nc2C(F)(F)F)nc2cnccc12)C(F)(F)F [Example 145, N-(1,1,1-trifluoro-2-methylpropan-2-yl)-2-[3-(trifluoromethyl)-1H-pyrazol-4-yl]pyrido[3,4-d]pyrimidin-4-amine] | 0.012 | 9.31 | > 100 |
| CC1(Nc2nc(-c3c(F)cncc3F)nc3cnccc23)CC1 [Example 147, 2-(3,5-difluoropyridin-4-yl)-N-(1-methylcyclopropyl)pyrido[3,4-d]pyrimidin-4-amine] | 0.069 | > 20 | > 10 |
| CC1(Nc2nc(-c3cncs3)nc3cnccc23)CC1 [Example 149, N-(1-methylcyclopropyl)-2-(1,3-thiazol-5-yl)pyrido[3,4-d]pyrimidin-4-amine] | 0.171 | > 20 | > 10 |
| Cc1noc(C)c1-c1nc(NC2(C)CC2)c2ccncc2n1 [Example 153, 2-(dimethyl-1,2-oxazol-4-yl)-N-(1-methylcyclopropyl)pyrido[3,4-d]pyrimidin-4-amine] | > 5 | > 20 | > 10 |
| CCCNc1nc(-n2ccc3ncccc32)nc2cnccc12 [Example 156, N-propyl-2-{1H-pyrrolo[3,2-b]pyridin-1-yl}pyrido[3,4-d]pyrimidin-4-amine] | 0.006 | 90.1 | > 100 |
| CC1(Nc2nc(-c3ccncn3)nc3cnccc23)CC1 [Example 159, N-(1-methylcyclopropyl)-2-(pyrimidin-4-yl)pyrido[3,4-d]pyrimidin-4-amine] | 0.016 | > 20 | > 10 |
| Cc1n[nH]c(C)c1-c1nc(NC(C)(C)CC(C)(C)O)c2ccncc2n1 [Example 160, 4-{[2-(3,5-dimethyl-1H-pyrazol-4-yl)pyrido[3,4-d]pyrimidin-4-yl]amino}-2,4-dimethylpentan-2-ol] | 0.024 | > 20 | 6.8 |
| Cc1[nH]ncc1-c1nc(N[C@H](C)c2ccccc2)c2ccncc2n1 [Example 168, 2-(5-methyl-1H-pyrazol-4-yl)-N-[(1R)-1-phenylethyl]pyrido[3,4-d]pyrimidin-4-amine] | 0.028 | 11.6 | 26.5 |
| Cn1nccc1-c1nc(NC2(C)CC2)c2ccncc2n1 [Example 172, 2-(1-methyl-1H-pyrazol-5-yl)-N-(1-methylcyclopropyl)pyrido[3,4-d]pyrimidin-4-amine] | 0.017 | > 20 | > 10 |
| CC1(Nc2nc(-c3cnco3)nc3cnccc23)CC1 [Example 175, N-(1-methylcyclopropyl)-2-(1,3-oxazol-5-yl)pyrido[3,4-d]pyrimidin-4-amine] | 0.324 | > 20 | > 10 |
| CC1(Nc2nc(-c3c[nH]nn3)nc3cnccc23)CC1 [Example 180, N-(1-methylcyclopropyl)-2-(1H-1,2,3-triazol-4-yl)pyrido[3,4-d]pyrimidin-4-amine] | 0.322 | > 20 | > 10 |
| Cn1nccc1-c1nc(NC2(CO)CCC2)c2ccncc2n1 [Example 187, (1-{[2-(1-methyl-1H-pyrazol-5-yl)pyrido[3,4-d]pyrimidin-4-yl]amino}cyclobutyl)methanol] | 0.016 | > 20 | > 100 |
| FC(F)(F)C1(Nc2nc(-c3cn[nH]c3)nc3cnccc23)CC1 [Example 188, 2-(1H-pyrazol-4-yl)-N-[1-(trifluoromethyl)cyclopropyl]pyrido[3,4-d]pyrimidin-4-amine] | 0.017 | 12 | > 100 |

Further compounds by falling IC50 [3], results first:

| IC50 [3] [µM] | Compound | EC50 [1] [µM] | IC50 [2] [µM] |
| --- | --- | --- | --- |
| 1.28 | C[C@@H](Nc1nc(-c2ccnn2C)nc2cnccc12)c1ccccc1 [Example 170, 2-(1-methyl-1H-pyrazol-5-yl)-N-[(1R)-1-phenylethyl]pyrido[3,4-d]pyrimidin-4-amine] | > 20 | > 10 |
| 0.197 | CC1(Nc2nc(-c3ccnnc3)nc3cnccc23)CC1 [Example 174, N-(1-methylcyclopropyl)-2-(pyridazin-4-yl)pyrido[3,4-d]pyrimidin-4-amine] | > 20 | > 10 |
| 0.025 | CCCNc1nc(-c2c[nH]c3ncncc23)nc2cnccc12 [Example 161, 4 N-propyl-2-{7H-pyrrolo[2,3-d]pyrimidin-5-yl}pyrido[3,4-d]pyrimidin-4-amine] | > 20 | > 100 |
| 0.022 | COCC(C)(C)Nc1nc(-c2ccncc2Cl)nc2cnccc12 [Example 124, 2-(3-chloropyridin-4-yl)-N-(1-methoxy-2-methylpropan-2-yl)pyrido[3,4-d]pyrimidin-4-amine] | 12 | 8.01 |
| 0.018 | CCN(c1nc(-c2ccncc2C)nc2cnccc12)C(C)C [Example 123, N-ethyl-2-(3-methylpyridin-4-yl)-N-(propan-2-yl)pyrido[3,4-d]pyrimidin-4-amine] | 9.2 | 9.45 |
| 0.008 | CC(C)(C#N)Nc1nc(-c2ccncc2)nc2cnccc12 [Example 107, 2-methyl-2-{[2-(pyridin-4-yl)pyrido[3,4-d]pyrimidin-4-yl]amino}propanenitrile] | 20 | 31.2 |
| 0.008 | CC1(Nc2nc(-c3cn[nH]c3)nc3cnccc23)CCC1 [Example 158, N-(1-methylcyclobutyl)-2-(1H-pyrazol-4-yl)pyrido[3,4-d]pyrimidin-4-amine] | 6.29 | 11.2 |
| 0.007 | CC1(Nc2nc(-c3ccc4[nH]ncc4c3)nc3cnccc23)CC1 [Example 143, 2-(1H-indazol-5-yl)-N-(1-methylcyclopropyl)pyrido[3,4-d]pyrimidin-4-amine] | > 20 | > 10 |
| 0.005 | CC(C)(CC#N)Nc1nc(-c2ccncc2)nc2cnccc12 [Example 104, 3-methyl-3-{[2-(pyridin-4-yl)pyrido[3,4-d]pyrimidin-4-yl]amino}butanenitrile] | 5.19 | 2.6 |
| 0.004 | CC1(Nc2nc(-c3ccncc3C#N)nc3cnccc23)CC1 [Example 141, 4-{4-[(1-methylcyclopropyl)amino]pyrido[3,4-d]pyrimidin-2-yl}pyridine-3-carbonitrile] | > 10 | 13.6 |
| 0.002 | CC(C)CNc1nc(-c2ccncc2)nc2cnccc12 [Example 103, N-(2-methylpropyl)-2-(pyridin-4-yl)pyrido[3,4-d]pyrimidin-4-amine] | 2.27 | 2.64 |
| 0.002 | Cc1[nH]c2ncccc2c1-c1nc(NC(C)(C)C)c2ccncc2n1 [Example 114, N-tert-butyl-2-{2-methyl-1H-pyrrolo[2,3-b]pyridin-3-yl}pyrido[3,4-d]pyrimidin-4-amine] | 1.33 | 0.565 |
| 0.002 | CC1(Nc2nc(-n3ccc4ncccc43)nc3cnccc23)CC1 [Example 179, N-(1-methylcyclopropyl)-2-{1H-pyrrolo[3,2-b]pyridin-1-yl}pyrido[3,4-d]pyrimidin-4-amine] | > 20 | > 10 |
